# Patent US20260158111A1, “USE OF TGF IN THE PREVENTION VIRUS INFECTION OF THE RESPIRATORY TRACT” (FrieslandCampina Nederland B.V., priority 2021, published 2026)
# System: Detroit D562 cells
# Experiment: Airway epithelial cells pretreated with component, then stimulated with viral infection proxy poly I:C; cytokine ELISA of supernatant
# Format: cell-based
# Conditions: Example 7; Galunisertib alone 100 nM
# Description: Detroit […] cells (ATCC-CCL138) were cultured in a T75 flask (Corning cat. No. 430641) in minimum essential medium (MEM, Invitrogen Catalog No. 21090-022) with 1× non-essential amino acids (Invitrogen cat. No. 11140-035), 10 mM sodium pyruvate (Invitrogen cat. No. 11360-039), 2 mM glutamax (Invitrogen cat. No. 35050-038), 1000 U/ml antibiotics penicillin, 1000 μg/ml […] and 10% serum (Hyclone, GE healthcare Life Sciences, lot. No. RB35936), henceforth called 10% complete medium with serum (CMS). Cells were trypsinized when confluency of 80% or greater was achieved, using 3 ml of Trypsin-EDTA (Invitrogen, cat. No. 25200-056) and resuspended into 12 ml of 10% CMS. Cells were counted and seeded at 6*10^4 cells/ml in three 24-well tissue culture treated plate (Corning cat. No. 3527) with 1 ml per well. These were cultured for one week till confluent. […] All the components were calibrated on protein concentration and added on cells at the calculated total protein concertation of 1 mg/ml on dry matter. […] ELISA kits from R&D Systems (Biotechne) were used to quantify cytokines IL-8/CXCL8 (DY208), IL-6 (DY206), TNF-α (DY210) and IFN-λ1/3 (DY1598B) according to the manufacturer's guidelines. Absorbance was measured at 450 nm and corrected for at 570 nm using the Biorad iMark plate reader & Imark software version 6.2. Cytokines were quantified before and after the addition of poly I:C.
smiles,measurement,value
Cc1cccc(-c2nn3c(c2-c2ccnc4ccc(C(N)=O)cc24)CCC3)n1 [Galunisertib],effect of Galunisertib alone on the cells,had no effect on the cells
